According to patent US20230278998A1, “Compound containing structure of a five-membered heteroaromatic ring, pharmaceutical compositions thereof and applications thereof” (280 Bio, Inc., priority 2022, published 2023):

Legend:
PARG (389-976) = PARG (389-976) (Homo sapiens (Human), UniProt Q86W56); test: PARG enzyme inhibition assay (TR-FRET); assay type: biochemical
Method: PARG Enzyme Inhibition Assay
PARG in vitro assays were conducted in standard 384-well plates in a total volume of 15 μL.

PARG = PARG (Homo sapiens (Human), UniProt Q86W56); test: PARG cell inhibition assay (PAR staining after H2O2); assay type: cell-based; details: UWB1.289 cells; value in brackets
Chain of PARG (Q86W56 whole entry): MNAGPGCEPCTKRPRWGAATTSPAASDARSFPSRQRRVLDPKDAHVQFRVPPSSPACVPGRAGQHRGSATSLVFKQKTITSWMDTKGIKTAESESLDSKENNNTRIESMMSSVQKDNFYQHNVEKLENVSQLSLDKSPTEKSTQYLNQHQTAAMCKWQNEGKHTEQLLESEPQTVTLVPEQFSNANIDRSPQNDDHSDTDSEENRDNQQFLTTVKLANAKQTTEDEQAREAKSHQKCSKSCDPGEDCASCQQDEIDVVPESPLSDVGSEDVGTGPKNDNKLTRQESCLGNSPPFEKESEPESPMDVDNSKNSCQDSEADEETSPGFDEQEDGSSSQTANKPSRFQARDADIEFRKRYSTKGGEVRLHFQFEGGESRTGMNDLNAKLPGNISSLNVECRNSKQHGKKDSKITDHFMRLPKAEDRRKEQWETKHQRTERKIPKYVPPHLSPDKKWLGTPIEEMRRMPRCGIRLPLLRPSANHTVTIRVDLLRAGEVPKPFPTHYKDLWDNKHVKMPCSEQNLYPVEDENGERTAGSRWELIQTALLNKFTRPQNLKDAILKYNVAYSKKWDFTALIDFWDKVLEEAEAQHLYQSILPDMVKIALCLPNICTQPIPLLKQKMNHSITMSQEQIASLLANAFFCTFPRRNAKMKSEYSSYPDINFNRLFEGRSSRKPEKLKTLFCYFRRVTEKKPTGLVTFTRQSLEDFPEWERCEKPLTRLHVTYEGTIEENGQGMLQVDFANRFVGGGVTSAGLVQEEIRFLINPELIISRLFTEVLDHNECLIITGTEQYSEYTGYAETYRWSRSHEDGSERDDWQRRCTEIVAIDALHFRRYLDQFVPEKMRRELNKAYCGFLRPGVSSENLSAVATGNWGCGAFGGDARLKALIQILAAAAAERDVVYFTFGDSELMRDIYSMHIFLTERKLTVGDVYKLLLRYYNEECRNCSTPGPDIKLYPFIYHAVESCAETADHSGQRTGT
Method: PARG Cell Inhibition Assay
UWB1.289 cells were used and the medium was 50% MEBM+50% 1640+3% FBS+1×PS. The cells were cultured according to ATCC standard operation and the cells were assayed in exponential growth phase for the experiment. Re-suspend cell in medium to a proper concentration, only cells with viability greater than 90% are used for assays.
Seed cells UWB1.289 in each culture medium, incubate overnight at 37° C., 5% CO2.
Test compounds was diluted with DMSO in gradient. Add test compound in cell plate, incubate at 37° C.
Add compounds and H2O2 mixture into cell plate, incubate at 37° C. Use 100 nM PDD00017273 as positive control.
Remove solution and recovery cell, incubate at 37° C.
Remove solution in the plate and add Cold-MeOH, incubate at −20° C.
Add blocking buffer into cell plate, incubate at RT.
Add PAR mAb, incubate at 4° C. overnight.
Add secondary antibody and DNA stain DRAQ5, incubate at RT.
Wash 3 times with PBST and 2 times with PBS. Turn plate upside down and centrifuge 1000 rpm 1 min.
Scan plate using LI-COR for best result.
Calculate the % inhibition according to the following formula: % inhibition=(compound signal value−negative control signal average)/(positive control signal average−negative control signal average)×100. Use the formula Y=Bottom+(Top−Bottom)/(1+10^((Log IC50−X)*HillSlope)) to fit the curve to obtain the IC50 values.

Chain of PARG (389-976) (Q86W56 389-976): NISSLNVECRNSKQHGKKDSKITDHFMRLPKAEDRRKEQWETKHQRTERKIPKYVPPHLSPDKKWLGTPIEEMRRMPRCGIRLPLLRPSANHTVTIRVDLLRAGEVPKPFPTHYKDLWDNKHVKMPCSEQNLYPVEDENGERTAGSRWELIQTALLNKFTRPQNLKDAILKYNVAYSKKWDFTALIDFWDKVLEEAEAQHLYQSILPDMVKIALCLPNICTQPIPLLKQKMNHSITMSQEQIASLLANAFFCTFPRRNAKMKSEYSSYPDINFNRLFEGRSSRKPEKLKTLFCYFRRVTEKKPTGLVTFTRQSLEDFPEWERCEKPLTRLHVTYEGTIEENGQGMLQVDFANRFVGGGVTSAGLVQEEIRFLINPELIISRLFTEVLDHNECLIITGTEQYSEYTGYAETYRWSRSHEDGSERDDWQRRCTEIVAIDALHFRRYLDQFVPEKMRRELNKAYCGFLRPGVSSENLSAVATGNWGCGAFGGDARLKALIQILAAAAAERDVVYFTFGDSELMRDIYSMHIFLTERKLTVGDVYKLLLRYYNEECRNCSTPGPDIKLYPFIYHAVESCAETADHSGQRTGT

| SMILES | IC50 (PARG) | IC50 (PARG (389-976); Table 2, class symbol) | IC50 (PARG (389-976); Table 2, value in brackets) | IC50 (PARG (389-976); Table 3, class symbol) | IC50 (PARG (389-976); Table 1, class symbol) | IC50 (PARG (389-976); Table 1, value in brackets) |
| --- | --- | --- | --- | --- | --- | --- |
| CC(C)C(=O)N1CCN(c2cc(S(=O)(=O)NC3(C)CC3)cc3c(-c4nnc(C(F)F)s4)n[nH]c23)CC1 [Compound 3] | 9.6 nM | – | – | – | < 100 nM | 1 nM |
| CC(C)CC(=O)N1CCN(c2cc(S(=O)(=O)NC3(C#N)CC3)cc3c(-c4nnc(C(F)F)s4)nn(C)c23)CC1 [Compound 146] | – | – | – | < 100 nM | – | – |
| Cc1nc(C)c(Cn2nc(-c3nnc(C(F)F)s3)c3cc(S(=O)(=O)NC4(C)CC4)ccc32)s1 [compound 1, reference compound] | 14.7 nM | – | – | – | – | 1.9 nM |

Further lines, with some results ahead:

| IC50 (PARG) | IC50 (PARG (389-976); Table 2, class symbol) | IC50 (PARG (389-976); Table 2, value in brackets) | IC50 (PARG (389-976); Table 3, class symbol) | SMILES | IC50 (PARG (389-976); Table 1, class symbol) | IC50 (PARG (389-976); Table 1, value in brackets) |
| --- | --- | --- | --- | --- | --- | --- |
| 3.1 nM | – | – | – | CC(C)C(=O)N1CCN(c2cc(S(=O)(=O)NC3(C)CC3)cc3c(-c4nnc(C(F)F)s4)nn(C)c23)CC1 [Compound 5] | < 100 nM | 0.5 nM |
| 3.6 nM | < 100 nM | 0.6 nM | – | CC(C)C(=O)N1CCN(c2cc(S(=O)(=O)NC3(C#N)CC3)cc3c(-c4nnc(C(F)F)s4)nn(C)c23)CC1 [Compound 17] | – | – |
| – | – | – | < 100 nM | CCN(C)C(=O)N1CCN(c2cc(S(=O)(=O)NC3(C#N)CC3)cc3c(-c4nnc(C(F)F)s4)nn(C)c23)CC1 [Compound 145] | – | – |
| 13.4 nM | – | – | < 100 nM | Cc1cc(Cn2c(=O)n(Cc3cnc(C)s3)c(=O)c3cc(S(=O)(=O)NC4(C)CC4)ccc32)n(C)n1 [PDD00017273, reference compound] | – | – |
